Source: US7118759B2 (priority 2001, dated 2006)
Like-named read-outs stand apart in the source and are kept apart here.

Columns and labels:
Assay type in all cases: cell-based, Staphylococcus aureus
S. aureus (MN8) = settings: for Reduction of Toxin (%): vs methanol control
S. aureus FRI-1169 = tested on: S. aureus FRI-1169
S. aureus FRI-1187 = tested on: S. aureus FRI-1187

SMILES	TSST-1 produced when compared to the control (S. aureus (MN8))	Reduction of Toxin (%) (S. aureus (MN8); 0.01 μg/mL test compound)	TSST-1 produced when compared to the control (S. aureus FRI-1169)	ELISA: TSST-1 ng/OD unit (S. aureus FRI-1169; 0.5 μg/mL triclosan)	TSST-1 produced when compared to the control (S. aureus FRI-1187)	ELISA: TSST-1 ng/OD unit (S. aureus FRI-1187; 0.5 ug/mL triclosan)	ELISA: TSST-1 ng/OD unit (S. aureus (MN8); 2 μg/mL test compound, 24 hours)	Reduction of Toxin (%) (S. aureus (MN8); 2 μg/mL test compound)
Oc1cc(Cl)ccc1Oc1ccc(Cl)cc1Cl [Triclosan, triclosan]	significantly less TSST-1	88%	less TSST-1	40 ng/OD unit	less TSST-1	95 ng/OD unit		
Oc1c(Cl)cc(Cl)c(Cl)c1Cc1c(O)c(Cl)cc(Cl)c1Cl [Hexachlorophene, hexachlorophene]	significantly less TSST-1						330 ng/OD unit	68%
